Assay results as given in ChEMBL document CHEMBL1156605, “Discovery of dihydroquinoxalinone acetamides containing bicyclic amines as potent Bradykinin B1 receptor antagonists” (Bioorg Med Chem Lett, 2008).

What was measured:
[1] = Metabolic stability in human liver microsomes; type: ADME, Microsome; conditions: read-out: Stability
[2] = molecular target: T1, B1 bradykinin receptor (Homo sapiens, UniProt P46663); test: Antagonist activity at human bradykinin B1 receptor expressed in CHO-D-/aequorin cells; type: functional, cell-based
T1 sequence (P46663 whole entry): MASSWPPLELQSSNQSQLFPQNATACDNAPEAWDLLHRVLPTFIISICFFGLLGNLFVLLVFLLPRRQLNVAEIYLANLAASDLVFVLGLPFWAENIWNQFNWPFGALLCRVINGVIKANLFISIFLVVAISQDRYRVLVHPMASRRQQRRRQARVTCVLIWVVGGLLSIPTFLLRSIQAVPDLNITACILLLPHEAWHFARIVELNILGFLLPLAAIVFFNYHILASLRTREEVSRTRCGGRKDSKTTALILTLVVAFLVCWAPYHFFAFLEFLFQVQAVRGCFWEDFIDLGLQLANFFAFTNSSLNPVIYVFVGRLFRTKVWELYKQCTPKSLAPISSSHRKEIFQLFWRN

[3] = molecular target: T1, B1 bradykinin receptor; test: Displacement of [3H]DAK from human bradykinin B1 receptor expressed in CHO-D-/aequorin cells by rapid filtration technique; type: cell-based

| microsomal CLint [1] [µL/min/mg] | IC50 [2] [nM] | Ki [3] [nM] | SMILES |
| --- | --- | --- | --- |
| 208 |  |  | CN(C)Cc1ccc2c(c1)OCC[C@H]2NC(=O)C[C@@H]1C(=O)Nc2ccccc2N1S(=O)(=O)c1ccc(Cl)c(Cl)c1 |
| 156 | 0.86 | 0.7 | CC(C)NCc1ccc2c(c1)OCC[C@H]2NC(=O)C[C@@H]1C(=O)Nc2ccccc2N1S(=O)(=O)c1ccc(Cl)c(Cl)c1 |
| 107 |  |  | CNCc1ccc2c(c1)OCC[C@H]2NC(=O)C[C@@H]1C(=O)Nc2ccccc2N1S(=O)(=O)c1ccc(Cl)c(Cl)c1 |
| 127 |  |  | NCc1ccc2c(c1)OCC[C@H]2NC(=O)C[C@@H]1C(=O)Nc2ccccc2N1S(=O)(=O)c1ccc(Cl)c(Cl)c1 |
| 264 |  |  | O=C(C[C@@H]1C(=O)Nc2ccccc2N1S(=O)(=O)c1ccc(Cl)c(Cl)c1)N[C@@H]1CCOc2cc(CO)ccc21 |

More lines, now with the values behind:

| SMILES | microsomal CLint [1] [µL/min/mg] | IC50 [2] [nM] | Ki [3] [nM] |
| --- | --- | --- | --- |
| Cc1ccc(S(=O)(=O)N2c3ccccc3NC(=O)[C@H]2CC(=O)N[C@@H]2CCOc3cc(CN4CCCCC4)ccc32)cc1 | 128 |  |  |
| CC(C)CNCc1ccc2c(c1)OCC[C@H]2NC(=O)C[C@@H]1C(=O)Nc2ccccc2N1S(=O)(=O)c1ccc(Cl)c(Cl)c1 | 264 |  |  |
| O=C(C[C@@H]1C(=O)Nc2ccccc2N1S(=O)(=O)c1ccccc1)N[C@@H]1CCOc2cc(CN3CCCCC3)ccc21 | 76 |  |  |
| CC(C)(C)NCc1ccc2c(c1)OCC[C@H]2NC(=O)C[C@@H]1C(=O)Nc2ccccc2N1S(=O)(=O)c1ccccc1 | 26 | 0.37 | 1.8 |
| O=Cc1ccc2c(c1)OCC[C@H]2NC(=O)C[C@@H]1C(=O)Nc2ccccc2N1S(=O)(=O)c1ccc(Cl)c(Cl)c1 | 407 |  |  |
| O=C(C[C@@H]1C(=O)Nc2ccccc2N1S(=O)(=O)c1ccc(Cl)c(Cl)c1)NCCc1ccc(C2=NCCN2)cc1 |  | 0.18 |  |
| COc1ccccc1NC(=O)CC1C(=O)Nc2ccccc2N1S(=O)(=O)c1c(C)cc(C)cc1C (stereo unspecified) |  | > 40000 | 500 |
| CC(C)(C)NCc1ccc2c(c1)OCC[C@H]2NC(=O)C[C@@H]1C(=O)Nc2ccccc2N1S(=O)(=O)c1ccc(Cl)c(Cl)c1 | 174 | 1.7 | 1.1 |
| O=C(C[C@@H]1C(=O)Nc2ccccc2N1S(=O)(=O)c1ccc(Cl)c(Cl)c1)N[C@@H]1CCOc2cc(CN3CCCCC3)ccc21 | 389 |  |  |
